Read-outs that look alike come from different tables or passages of the source.
What was measured:
Type in all cases: biochemical
[1] = target: T1, Haspin-kd (human, kinase domain, amino acids 470–798) (Homo sapiens, UniProt Q8TF76); assay: ADP-Glo kinase inhibition assay, Haspin; details: for IC50: 10 μM ATP, duplicate; for remaining activity at 1 µM: read-out: Haspin % residual activity at 1 μM; for remaining activity at 10 µM: read-out: Haspin % residual activity at 10 μM
T1 construct: Haspin-kd (human, kinase domain, amino acids 470–798, recombinant, expressed in bacteria); host or cells: bacteria
T1 sequence (Q8TF76 470-798): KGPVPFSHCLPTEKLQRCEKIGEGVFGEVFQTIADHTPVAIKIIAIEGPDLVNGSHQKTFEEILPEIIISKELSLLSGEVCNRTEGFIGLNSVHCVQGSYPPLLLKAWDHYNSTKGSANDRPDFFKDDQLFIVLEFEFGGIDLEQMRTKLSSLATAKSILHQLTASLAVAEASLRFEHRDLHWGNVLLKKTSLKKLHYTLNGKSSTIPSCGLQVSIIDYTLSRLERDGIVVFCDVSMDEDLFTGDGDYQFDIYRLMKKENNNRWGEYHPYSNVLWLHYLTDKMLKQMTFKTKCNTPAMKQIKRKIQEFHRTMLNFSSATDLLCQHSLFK
Procedure: (§1) Kinase enzymatic activities were assayed in 384 well plates using the ADP-GloTM assay kit (Promega, Madison, WI, USA) according to the manufacturer’s guidance. Briefly, the reactions were carried out in a final volume of 6 μL for 30 min at 30 °C in an appropriate kinase buffer (10 mM MgCl2, 1 mM EGTA, 1 mM DTT, 25 mM Tris-HCl pH 7.5, 50 μg/mL heparin), with either protein or peptide as substrate in the presence of 10 μM ATP (40 mM Tris pH 7.5, 20 mM MgCl2 and 0.1 mg/mL of BSA). Afterward, 6 μL of ADP-GloTM Kinase Reagent was added to stop the kinase reaction. After an incubation time of 50 min at room temperature (RT), 12 μL of Kinase Detection Reagent was added for 1 h at RT. The transmitted signal was measured using the Envision (Perkin Elmer, Waltham, MA, USA) microplate luminometer and expressed in relative light unit (RLU). In order to determine the half maximal inhibitory concentration (IC50), the assays were performed in duplicate in the absence or presence of increasing doses of the tested compounds. GraphPad Prism6 software (GraphPad Software, San Diego, CA, USA) was used to fit dose–response curves and to determine the IC50 values. Kinase activities are expressed in the percentage of maximal activity, i.e., measured in the absence of an inhibitor. Peptide substrates were obtained from Proteogenix (Schiltigheim, France).

MmCLK1 = target: T2, MmCLK1 (Mus musculus, UniProt P22518); assay: ADP-Glo kinase inhibition assay, CLK1; details: for remaining activity at 1 µM: read-out: CLK1 % residual activity at 1 μM; for remaining activity at 10 µM: read-out: CLK1 % residual activity at 10 μM
T2 construct: host or cells: bacteria
T2 sequence (P22518 whole entry): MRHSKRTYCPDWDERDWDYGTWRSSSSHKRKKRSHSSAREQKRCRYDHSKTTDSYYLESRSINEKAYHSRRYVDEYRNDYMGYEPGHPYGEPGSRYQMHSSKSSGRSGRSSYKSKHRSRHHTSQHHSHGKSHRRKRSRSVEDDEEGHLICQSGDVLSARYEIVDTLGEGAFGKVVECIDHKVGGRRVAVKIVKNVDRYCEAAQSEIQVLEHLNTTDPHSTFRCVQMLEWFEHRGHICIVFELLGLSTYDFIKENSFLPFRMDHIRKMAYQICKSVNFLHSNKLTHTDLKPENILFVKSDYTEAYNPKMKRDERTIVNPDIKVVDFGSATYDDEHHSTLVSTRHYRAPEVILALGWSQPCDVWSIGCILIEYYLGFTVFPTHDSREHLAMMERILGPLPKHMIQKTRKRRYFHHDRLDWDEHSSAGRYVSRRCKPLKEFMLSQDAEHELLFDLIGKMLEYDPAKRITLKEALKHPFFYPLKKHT
Procedure: as §1
(§2) The following protein kinases were analyzed in this study: CDK5/p25 (human, recombinant, expressed in bacteria) was assayed with 0.8 μg/μL of histone H1 as substrate; CDK9/CyclinT (human, recombinant, expressed by baculovirus in Sf9 insect cells) were assayed with 0.27 μg/μL of the following peptide: […], as substrate; CK1ε (human, recombinant, expressed by baculovirus in Sf9 insect cells) was assayed with 0.022 μg/μL of the following peptide: […]pAYSITA (“Sp” stands for phosphorylated serine) as CK1-specific substrate; GSK3β (human, recombinant, expressed by baculovirus in Sf9 insect cells) were assayed with 0.010 μg/μL of GS-1 peptide, a GSK-3-selective substrate ([…]pEDEEE); Haspin-kd (human, kinase domain, amino acids 470–798, recombinant, expressed in bacteria) was assayed with 0.007 μg/μL of histone H3 (1–21) peptide ([…]) as substrate; Pim-1 (human proto-oncogene, recombinant, expressed in bacteria) was assayed with 0.8 μg/μL of histone H1 as substrate; MmCLK1 (from Mus musculus, recombinant, expressed in bacteria) was assayed with 0.027 μg/μL of the following peptide: […] as substrate; RnDYRK1A-kd (Rattus norvegicus, amino acids 1–499 including the kinase domain, recombinant, expressed in bacteria, DNA vector kindly provided by Dr. W. Becker, Aachen, Germany) was assayed with 0.033 μg/μL of the following peptide: […] as substrate.

RnDYRK1A-kd = target: T3, RnDYRK1A-kd (Rattus norvegicus, UniProt Q63470); assay: ADP-Glo kinase inhibition assay, DYRK1A; details: for remaining activity at 1 µM: read-out: DYRK1A % residual activity at 1 μM; for remaining activity at 10 µM: read-out: DYRK1A % residual activity at 10 μM
T3 construct: RnDYRK1A-kd (Rattus norvegicus, amino acids 1–499 including the kinase domain, recombinant, expressed in bacteria); made in house; host or cells: bacteria
Procedure: as §1, §2

CDK9/CyclinT = target: T4, CDK9/CyclinT (Homo sapiens, UniProt P50750); assay: ADP-Glo kinase inhibition assay, CDK9/CyclinT; details: for remaining activity at 1 µM: read-out: CDK9 % residual activity at 1 μM; for remaining activity at 10 µM: read-out: CDK9 % residual activity at 10 μM; for IC50: 10 μM ATP, duplicate
T4 construct: host or cells: Sf9 insect cells (baculovirus)
T4 sequence (O60563 whole entry): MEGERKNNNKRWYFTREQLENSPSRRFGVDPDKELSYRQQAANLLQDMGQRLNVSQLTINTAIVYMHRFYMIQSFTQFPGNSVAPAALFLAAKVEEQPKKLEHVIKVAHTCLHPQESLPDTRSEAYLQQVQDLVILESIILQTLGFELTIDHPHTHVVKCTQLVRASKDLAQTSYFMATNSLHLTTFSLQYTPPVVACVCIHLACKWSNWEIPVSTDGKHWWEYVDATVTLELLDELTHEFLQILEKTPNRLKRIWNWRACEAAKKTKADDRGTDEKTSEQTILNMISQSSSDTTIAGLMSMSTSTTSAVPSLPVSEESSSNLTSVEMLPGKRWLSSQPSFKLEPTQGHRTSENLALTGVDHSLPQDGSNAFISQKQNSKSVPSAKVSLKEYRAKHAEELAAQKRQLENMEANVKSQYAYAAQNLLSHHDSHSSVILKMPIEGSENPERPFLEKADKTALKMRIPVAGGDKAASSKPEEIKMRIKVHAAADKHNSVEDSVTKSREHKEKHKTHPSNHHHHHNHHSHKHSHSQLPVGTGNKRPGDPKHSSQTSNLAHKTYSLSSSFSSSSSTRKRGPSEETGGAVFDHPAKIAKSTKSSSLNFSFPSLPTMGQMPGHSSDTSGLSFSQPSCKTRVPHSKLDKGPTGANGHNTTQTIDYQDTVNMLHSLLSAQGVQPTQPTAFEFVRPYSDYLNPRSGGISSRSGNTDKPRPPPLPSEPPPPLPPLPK
T4 sequence (P50750 whole entry): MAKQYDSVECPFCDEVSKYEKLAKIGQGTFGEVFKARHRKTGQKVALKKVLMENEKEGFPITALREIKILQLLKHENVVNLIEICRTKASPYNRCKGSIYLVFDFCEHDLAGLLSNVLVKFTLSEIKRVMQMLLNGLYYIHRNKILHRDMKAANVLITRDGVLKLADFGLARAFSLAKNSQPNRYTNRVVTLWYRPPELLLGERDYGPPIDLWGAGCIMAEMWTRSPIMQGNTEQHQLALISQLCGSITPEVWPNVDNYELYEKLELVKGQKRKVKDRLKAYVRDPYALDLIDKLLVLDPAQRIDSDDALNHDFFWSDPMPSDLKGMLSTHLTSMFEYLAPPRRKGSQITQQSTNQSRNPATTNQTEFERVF
Procedure: as §1, §2

GSK3β = target: T5, GSK3β (Homo sapiens, UniProt P49841); assay: ADP-Glo kinase inhibition assay, GSK3β; details: for remaining activity at 1 µM: read-out: GSK3 % residual activity at 1 μM; for remaining activity at 10 µM: read-out: GSK3 % residual activity at 10 μM; for IC50: 10 μM ATP, duplicate, read-out: GSK3 IC50
T5 construct: host or cells: Sf9 insect cells (baculovirus)
T5 sequence (P49841 whole entry): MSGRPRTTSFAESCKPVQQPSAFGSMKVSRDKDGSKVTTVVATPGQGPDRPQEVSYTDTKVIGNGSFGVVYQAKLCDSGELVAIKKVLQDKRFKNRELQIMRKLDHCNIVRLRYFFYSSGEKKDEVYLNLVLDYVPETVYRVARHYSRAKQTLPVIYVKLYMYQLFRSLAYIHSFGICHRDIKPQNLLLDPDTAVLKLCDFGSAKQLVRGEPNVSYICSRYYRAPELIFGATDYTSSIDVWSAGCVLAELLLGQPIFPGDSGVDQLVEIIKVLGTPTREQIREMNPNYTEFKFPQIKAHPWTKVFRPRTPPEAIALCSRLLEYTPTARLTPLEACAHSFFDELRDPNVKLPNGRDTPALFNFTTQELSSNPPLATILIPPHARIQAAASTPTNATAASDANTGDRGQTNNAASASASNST
Procedure: as §1, §2

CK1ε = target: T6, CK1ε (Homo sapiens, UniProt P49674); assay: ADP-Glo kinase inhibition assay, CK1ε; details: 10 μM ATP, duplicate; for remaining activity at 1 µM: 1 μM compound, read-out: CK1 % residual activity at 1 μM; for remaining activity at 10 µM: 10 μM compound, read-out: CK1 % residual activity at 10 μM
T6 construct: host or cells: Sf9 insect cells (baculovirus)
T6 sequence (P49674 whole entry): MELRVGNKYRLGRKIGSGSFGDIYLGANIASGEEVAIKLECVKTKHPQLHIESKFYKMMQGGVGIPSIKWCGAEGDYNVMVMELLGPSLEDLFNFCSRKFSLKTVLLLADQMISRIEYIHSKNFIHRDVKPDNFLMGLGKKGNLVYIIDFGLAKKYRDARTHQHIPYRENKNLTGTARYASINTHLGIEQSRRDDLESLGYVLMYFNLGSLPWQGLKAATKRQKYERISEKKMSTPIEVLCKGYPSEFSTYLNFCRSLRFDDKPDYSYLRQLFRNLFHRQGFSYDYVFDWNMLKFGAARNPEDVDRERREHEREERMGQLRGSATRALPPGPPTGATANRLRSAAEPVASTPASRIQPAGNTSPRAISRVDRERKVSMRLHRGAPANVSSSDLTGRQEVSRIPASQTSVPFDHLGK
Procedure: as §1, §2

CDK5/p25 = target: T7, CDK5/p25 (Homo sapiens, UniProt Q00535); assay: ADP-Glo kinase inhibition assay, CDK5/p25; details: for remaining activity at 1 µM: read-out: CDK5 % residual activity at 1 μM; for remaining activity at 10 µM: read-out: CDK5 % residual activity at 10 μM
T7 construct: host or cells: bacteria
T7 sequence (Q00535 whole entry): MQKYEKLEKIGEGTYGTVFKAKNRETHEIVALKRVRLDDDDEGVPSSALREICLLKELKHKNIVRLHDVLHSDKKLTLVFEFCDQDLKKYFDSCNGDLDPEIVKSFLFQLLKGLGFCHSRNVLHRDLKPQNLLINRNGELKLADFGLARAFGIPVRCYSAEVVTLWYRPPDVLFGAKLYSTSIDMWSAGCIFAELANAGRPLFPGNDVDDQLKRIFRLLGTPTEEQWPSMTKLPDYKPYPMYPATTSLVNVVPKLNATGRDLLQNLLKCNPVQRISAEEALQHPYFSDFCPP
T7 sequence (Q15078 99-307, further chain): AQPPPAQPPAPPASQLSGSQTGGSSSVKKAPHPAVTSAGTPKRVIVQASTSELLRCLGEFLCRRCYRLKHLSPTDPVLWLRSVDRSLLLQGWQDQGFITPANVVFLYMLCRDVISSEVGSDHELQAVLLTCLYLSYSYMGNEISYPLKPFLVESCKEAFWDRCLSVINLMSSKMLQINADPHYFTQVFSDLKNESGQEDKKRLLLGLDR
Procedure: as §1, §2

Pim-1 = target: T8, Pim-1 (Homo sapiens, UniProt P11309); assay: ADP-Glo kinase inhibition assay, Pim-1; details: 10 μM ATP, duplicate; for remaining activity at 1 µM: 1 μM compound, read-out: PIM1 % residual activity at 1 μM; for remaining activity at 10 µM: 10 μM compound, read-out: PIM1 % residual activity at 10 μM
T8 construct: host or cells: bacteria
T8 sequence (P11309 whole entry): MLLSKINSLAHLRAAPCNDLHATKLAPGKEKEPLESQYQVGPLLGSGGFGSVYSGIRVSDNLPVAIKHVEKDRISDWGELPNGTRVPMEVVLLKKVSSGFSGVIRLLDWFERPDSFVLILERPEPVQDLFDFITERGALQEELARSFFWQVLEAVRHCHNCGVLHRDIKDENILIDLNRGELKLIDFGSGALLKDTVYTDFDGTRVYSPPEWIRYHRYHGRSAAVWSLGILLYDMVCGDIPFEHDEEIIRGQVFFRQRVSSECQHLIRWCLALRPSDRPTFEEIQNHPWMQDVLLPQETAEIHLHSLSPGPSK
Procedure: as §1, §2

[2] = 10 μM ATP, duplicate, read-out: CLK1 IC50
[3] = 10 μM ATP, duplicate, read-out: DYRK1A IC50

SMILES | IC50 [1] [µM] | remaining activity at 1 µM [1] [%] | remaining activity at 10 µM [1] [%] | remaining activity at 1 µM (MmCLK1) [%] | remaining activity at 10 µM (MmCLK1) [%] | remaining activity at 1 µM (RnDYRK1A-kd) [%] | remaining activity at 10 µM (RnDYRK1A-kd) [%] | remaining activity at 1 µM (CDK9/CyclinT) [%] | remaining activity at 10 µM (CDK9/CyclinT) [%] | remaining activity at 1 µM (GSK3β) [%] | remaining activity at 10 µM (GSK3β) [%] | remaining activity at 1 µM (CK1ε) [%] | remaining activity at 10 µM (CK1ε) [%] | remaining activity at 1 µM (CDK5/p25) [%] | remaining activity at 10 µM (CDK5/p25) [%] | remaining activity at 1 µM (Pim-1) [%] | remaining activity at 10 µM (Pim-1) [%] | IC50 (MmCLK1; [2]) [µM] | IC50 (RnDYRK1A-kd; [3]) [µM] | IC50 (CDK9/CyclinT) [µM] | other results
O=[N+]([O-])c1c2ccncc2cc2cn[nH]c12 [1a’] | 0.154 | 32 | 23 | 90 | 30 | 68 | 25 | 86 | 48 | 99 | 50 | 100 | 64 | 91 | 62 | 90 | 85 | – | – | – | IC50 (MmCLK1; assumed on the basis of % of inhibition at 1 μM (less than 50%), read-out: CLK1 IC50 (assumed)): > 1 µM; IC50 (RnDYRK1A-kd; assumed on the basis of % of inhibition at 1 μM (less than 50%), read-out: DYRK1A IC50 (assumed)): > 1 µM
Cn1ncc2cc3cnccc3c([N+](=O)[O-])c21 [Compound 1b, 1-Methyl-9-nitro-1H-pyrazolo[3,4-g]isoquinoline] | 0.057 | 26 | 9 | 42 | 10 | 41 | 11 | 57 | 35 | 73 | 33 | 88 | 53 | 95 | 43 | 100 | 54 | 0.071 | 0.681 | – | –
CCn1ncc2cc3cnccc3c([N+](=O)[O-])c21 [Compound 1c, 1-Ethyl-9-nitro-1H-pyrazolo[3,4-g]isoquinoline] | 0.066 | 38 | 15 | 25 | 6 | 44 | 18 | 46 | 23 | 53 | 19 | 90 | 58 | 94 | 79 | 100 | 70 | 0.166 | 1.11 | 0.428 | –
CCn1ncc2cc3cnccc3c(N)c21 [Compound 2c, 1-Ethyl-1H-pyrazolo[3,4-g]isoquinolin-9-amine] | 0.062 | 17 | 3 | 34 | 8 | 23 | 6 | 80 | 50 | 82 | 40 | 84 | 48 | 65 | 28 | 91 | 60 | 0.564 | 0.25 | – | Selectivity Index (SI) Haspin vs. DYRK1A ([1]; Haspin vs. DYRK1A, which was more inhibited than CLK1): 4.0
CCn1ncc2c(C)c3cnccc3c([N+](=O)[O-])c21 [Compound 3a, 1-Ethyl-4-methyl-9-nitro-1H-pyrazolo[3,4-g]isoquinoline] | 0.167 | 20 | 8 | 13 | 0 | 73 | 13 | 43 | 14 | 39 | 9 | 89 | 45 | 64 | 35 | 100 | 97 | 0.101 | – | 0.789 | IC50 (GSK3β): 1.08 µM
CCc1c2cnccc2c([N+](=O)[O-])c2c1cnn2CC [Compound 3b, 1,4-Diethyl-9-nitro-1H-pyrazolo[3,4-g]isoquinoline] | – | 63 | 10 | 19 | 0 | 100 | 9 | 25 | 0 | 28 | 3 | 82 | 25 | 33 | 16 | 100 | 89 | – | – | – | inhibition at 1 µM ([1]; read-out: Haspin inhibition at 1 μM, 1 μM compound, % inhibition): ≤ 50%
CCCc1c2cnccc2c([N+](=O)[O-])c2c1cnn2CC [Compound 3c, 1-Ethyl-9-nitro-4-propyl-1H-pyrazolo[3,4-g]isoquinoline] | 0.497 | 25 | 17 | 23 | 4 | 95 | 41 | 18 | 4 | 12 | 5 | 81 | 35 | 54 | 10 | 86 | 88 | 0.363 | – | 0.322 | IC50 (GSK3β): 0.218 µM
